In paper PMC12284850, “In Silico Design of Antimicrobial Peptides against Carbapenem-Resistant Infections with Enhanced Activity by Nanoformulation” (ACS Applied Bio Materials, 2025):
In brackets after ≈: the same amount, converted by molar mass. Read-outs that look alike come from different tables or passages of the source. Where a SMILES comes first, the peptide text is derived from it. Bridges are numbered along the chain shown (N, C = ends). [ ]: non-standard residue; d: D form. The star is where a group is joined. X1 = CC[C@H](C)CCCCC(=O)*; Dab = NCC[C@H](N)C(=O)O

Assays:
[1] = system: E. coil ATCC25922; type: cell-based, E. coli
Description: (§1) The broth microdilution procedure involves preparing CAMHB broth, a bacterial suspension adjusted to McFarland 0.5 (1.5 × 10^8 CFU/mL) and diluted 200×, and a drug solution at 2× the final target concentration. To achieve a 400× final bacterial dilution, add 100 μL of the drug at different doses to a 96-well plate, then 100 μL of the diluted bacterial culture. Measure the initial absorbance (0 h), incubate at 37 °C for 16–18 h, and measure the final absorbance. With no change in absorbance, the MIC signifies the absence of bacterial growth.

[2] = system: A. baumannii ATCC BAA-747; type: cell-based
Description: as §1

[3] = system: A. baumannii ATCC19606; type: cell-based
Description: as §1

[4] = system: E. faecalis ATCC 29212; type: cell-based
Description: as §1

[5] = system: K. pneumoniae ATCC BAA-1705; type: cell-based
Description: as §1

[6] = system: K. pneumoniae ATCCC700603; type: cell-based
Description: as §1

[7] = system: P. aeruginosa ATCC27853; type: cell-based
Description: as §1

[8] = system: S. aureus ATCC25923; type: cell-based
Description: as §1

[9] = system: S. aureus ATCC29213; type: cell-based
Description: as §1

[10] = system: S. aureus ATCC33592; type: cell-based
Description: as §1

[11] = system: S. aureus ATCC700698; type: cell-based
Description: as §1

[12] = system: HEK293; type: cell-based, human; settings: 72 h
Description: (§2) We tested the cytotoxicity of several antibiotic compounds, including peptides and nanoparticles, on the human embryonic kidney cell lines HEK-293, HK-2, and […]. The cells were stored in DMEM medium and incubated at 37 °C with 5% CO2 in a humidifying environment. Using the MTT (methylthiazolyldiphenyl-tetrazolium bromide) test, cell viability was evaluated. Following a 5 × 10^3 cell/mL seeding in 96-well plates, the cells were exposed to 100 μL of samples at varying concentrations (12.5–200 μM) during 72 h at 37 °C. Later, each well is loaded with MTT solution (5 mg/mL in PBS) at a volume of 10 μL. The plates were left in the dark for 4 h. After forming formazan crystals due to the action of mitochondrial reductases in living cells, the crystals were dissolved using a solubilizing solution (pH 4.7, 40% dimethylformamide, 2% glacial acetic acid, and 16% sodium dodecyl sulfate) were shaken at 150 rpm and incubated for an hour at 37 °C. Using graphical plot analysis, the IC50 value–the concentration that results in 50% cell death–was obtained by measuring the absorbance of the dissolved formazan at 570 nm. The average of three independent tests, each carried out in triplicate, was used to display the results.

[13] = system: A. baumannii ATCC19606; type: cell-based; settings: 37 °C, 18 h
Text: The antimicrobial mechanism of colistin against bacteria has been attributed to the interaction between positively charged colistin and negatively charged outer membrane. Colistin could be displaced by divalent ions, such as calcium ions (Ca^2+) and magnesium (Mg^2+) in a competitively way. Moreover, elevated levels of divalent cations can enhance membrane rigidity, thereby reducing drug penetration and overall efficacy. To investigate the antimicrobial mechanism of T2–02, the competitive assays using divalent calcium ion were conducted. The elevated MICs of colistin were observed by adding Ca^2+ (2 to 32 μg/mL, Table S4).
As previously reported, the MIC values of T2–02 in conjunction with different chemical agents was estimated using the broth microdilution technique. Different concentrations of T2–02 were combined with Ca2+ separately, and the effect of chemical agents on T2–02 were tracked by observing variations in their MIC values. Each solution was added to a 96-well plate at the proper concentration in 100 μL volume. Next, 100 μL of the modified bacterial solution was added to each well. The absorbance was measured after incubation at 37 °C for 0 and 18 h.

[14] = system: HK-2 cells; experiment: Cytotoxicity assay (MTT); type: cell-based
Description: as §2

[15] = system: human red blood cells (RBCs); experiment: Hemolysis assay; type: cell-based; settings: at 256 μg/mL, 2% hematocrit, 1 h, 37 °C, absorbance 540 nm, triplicate
Description: 5 . Hemolysis profiles of colistin, free T2–02, and T2–02-loaded liposomes. (A) Colistin, (B) free T2–02 peptide, and (C) T2–02-loaded liposomes (T2–02 Lipo) were incubated with human red blood cells (RBCs) at various concentrations (0–256 μg/mL) for 1 hour at 37 °C.
The hemolytic potential of colistin, T2–02, and T2–02 Lipo were assessed using a modified erythrocyte lysis assay. Briefly, fresh erythrocytes were washed twice with phosphate-buffered saline (PBS) and resuspended in 5% glucose solution to prepare a 2% hematocrit suspension. Aliquots (100 μL) of each test compound at varying concentrations were incubated with the erythrocyte suspension at 37 °C with gentle agitation (120 rpm) for 1 h. After incubation, samples were centrifuged at 700 × g for 10 min, and the supernatant was transferred to a 96-well microplate. The release of hemoglobin was quantified by measuring the absorbance at 540 nm. The percentage of hemolysis was calculated as follows: Hemolysis (%) = (OD of test sample – OD of negative control)/(OD of positive control-OD of negative control) × 100%. Each experiment was performed in triplicate, and data were expressed as mean ± standard deviation (SD).

| Molecule | MIC [1] [µg/mL] | MIC [2] [µg/mL] | MIC [3] [µg/mL] | MIC [4] [µg/mL] | MIC [5] [µg/mL] | MIC [6] [µg/mL] | MIC [7] [µg/mL] | MIC [8] [µg/mL] | MIC [9] [µg/mL] | MIC [10] [µg/mL] | MIC [11] [µg/mL] | IC50 HEK293 [12] [µg/mL] | Antibacterial activity (MIC), 20 mM CaCl2 ([13]; in the presence of 20 mM CaCl2, broth microdilution) [µg/mL] | Antibacterial activity (MIC), Control ([13]; without CaCl2, broth microdilution) [µg/mL] | Cytotoxicity HK-2 related to PMB ([14]; ratio of HK-2 IC50 to that of polymyxin B) | Hemolysis [15] [%] | Cytotoxicity HK-2 related to PMB [14] |
| --- | --- | --- | --- | --- | --- | --- | --- | --- | --- | --- | --- | --- | --- | --- | --- | --- | --- |
| CC[C@H](C)[C@H](NC(=O)[C@H](CCC(=O)O)NC(=O)[C@H](CC(N)=O)NC(=O)[C@H](CC(C)C)NC(=O)[C@H](C)NC(=O)[C@H](C)NC(=O)[C@H](CCCCN)NC(=O)CNC(=O)[C@H](C)NC(=O)[C@H](CC(N)=O)NC(=O)[C@H](CCCCN)NC(=O)[C@H](CC(C)C)NC(=O)[C@@H](NC(=O)[C@H](CC(=O)O)NC(=O)[C@H](CCCCN)NC(=O)[C@H](Cc1c[nH]c2ccccc12)NC(=O)[C@H](CC(C)C)NC(=O)[C@H](C)N)[C@@H](C)CC)C(=O)N[C@@H](CC(N)=O)C(=O)N[C@@H](CCC(N)=O)C(=O)N[C@@H](CC(C)C)C(=O)O [T2] (H-ALWKDILKNAGKAALNEINQL-OH) | >1024 | 8 (≈ 3.44 µM) | 8 (≈ 3.44 µM) | 1024 (≈ 441 µM) | >1024 | >512 | 8 (≈ 3.44 µM) | 1024 (≈ 441 µM) | >512 | >512 | >512 | >1024 | – | – | – | – | – |
| CC[C@H](C)CCCCC(=O)N[C@@H](CCN)C(=O)N[C@H](C(=O)N[C@@H](CCN)C(=O)N[C@H]1CCNC(=O)[C@H]([C@@H](C)O)NC(=O)[C@H](CCN)NC(=O)[C@H](CCN)NC(=O)[C@H](CC(C)C)NC(=O)[C@@H](CC(C)C)NC(=O)[C@H](CCN)NC1=O)[C@@H](C)O [Colistin] (X1-[Dab]T[Dab][Dab][Dab][dL]L[Dab][Dab]T; lactam 4-C (inferred); N-terminus assumed) | – | – | – | – | – | – | – | – | – | – | – | – | 32 | 2 | 2.6 | ~45 | – |
| SPR 206 [reference compound] | – | – | – | – | – | – | – | – | – | – | – | – | – | – | – | – | 11.6 |

More lines, main results first:

| MIC [1] [µg/mL] | MIC [2] [µg/mL] | MIC [3] [µg/mL] | MIC [4] [µg/mL] | MIC [5] [µg/mL] | MIC [6] [µg/mL] | MIC [7] [µg/mL] | MIC [8] [µg/mL] | MIC [9] [µg/mL] | MIC [10] [µg/mL] | MIC [11] [µg/mL] | Molecule | IC50 HEK293 [12] [µg/mL] | Antibacterial activity (MIC), 20 mM CaCl2 ([13]; in the presence of 20 mM CaCl2, broth microdilution) [µg/mL] | Antibacterial activity (MIC), Control ([13]; without CaCl2, broth microdilution) [µg/mL] | Cytotoxicity HK-2 related to PMB ([14]; ratio of HK-2 IC50 to that of polymyxin B) | Hemolysis [15] [%] | Cytotoxicity HK-2 related to PMB [14] |
| --- | --- | --- | --- | --- | --- | --- | --- | --- | --- | --- | --- | --- | --- | --- | --- | --- | --- |
| 64 (≈ 20.1 µM) | 32 (≈ 10.1 µM) | 32 (≈ 10.1 µM) | 128 (≈ 40.3 µM) | 128 (≈ 40.3 µM) | 128 (≈ 40.3 µM) | 32 (≈ 10.1 µM) | 128 (≈ 40.3 µM) | >512 | >512 | >512 | CC[C@H](C)[C@H](NC(=O)[C@H](CC(=O)O)NC(=O)[C@H](CCCCN)NC(=O)[C@H](Cc1c[nH]c2ccccc12)NC(=O)[C@H](CC(C)C)NC(=O)[C@H](C)N)C(=O)N[C@@H](CC(C)C)C(=O)N[C@@H](CCCCN)C(=O)N[C@@H](CC(N)=O)C(=O)N[C@@H](C)C(=O)NCC(=O)N[C@@H](CCCCN)C(=O)N[C@@H](C)C(=O)N[C@@H](C)C(=O)N[C@@H](CC(C)C)C(=O)N[C@@H](CC(N)=O)C(=O)N[C@@H](CCC(=O)O)C(=O)N[C@H](C(=O)N[C@@H](CC(N)=O)C(=O)N[C@@H](CCC(N)=O)C(=O)N[C@@H](CC(C)C)C(=O)N[C@H](C(=O)N[C@@H](CC(N)=O)C(=O)NCC(=O)N[C@@H](CCCNC(=N)N)C(=O)NCC(=O)N[C@@H](CC(C)C)C(=O)N[C@@H](CCCCN)C(=O)N[C@@H](CCCCN)C(=O)O)C(C)C)[C@@H](C)CC [seq ID-1, reference compound] (H-ALWKDILKNAGKAALNEINQLVNGRGLKK-OH) | – | – | – | – | – | – |
| >512 | 64 (≈ 25.7 µM) | 64 (≈ 25.7 µM) | >512 | >512 | >512 | 64 (≈ 25.7 µM) | >512 | 512 (≈ 205 µM) | >512 | >512 | CC[C@H](C)[C@H](NC(=O)[C@H](CCC(=O)O)NC(=O)[C@H](CC(N)=O)NC(=O)[C@H](CC(C)C)NC(=O)[C@H](C)NC(=O)[C@H](C)NC(=O)[C@H](CCCCN)NC(=O)CNC(=O)[C@H](CCCNC(=N)N)NC(=O)[C@H](CCCNC(=N)N)NC(=O)[C@H](CCCCN)NC(=O)[C@H](CC(C)C)NC(=O)[C@H](CC(C)C)NC(=O)[C@H](CCCNC(=N)N)NC(=O)[C@H](CCCCN)NC(=O)[C@H](Cc1c[nH]c2ccccc12)NC(=O)[C@H](CC(C)C)NC(=O)[C@H](C)N)C(=O)N[C@@H](CC(N)=O)C(=O)N[C@@H](CCC(N)=O)C(=O)N[C@@H](CC(C)C)C(=O)O [T2–01] (H-ALWKRLLKRRGKAALNEINQL-OH) | – | – | – | – | – | – |
